According to ChEMBL document CHEMBL4819089, “Magnolol, a natural aldehyde dehydrogenase-2 agonist, inhibits the proliferation and collagen synthesis of cardiac fibroblasts” (Bioorg Med Chem Lett, 2021):
Active and inactive are the calls of the source. No cut-off for these calls is given here.

Experiments:
Cardiac fibroblast [1] = test: Anti-myocardial fibrosis activity against cardiac fibroblasts (unknown origin) assessed as reduction in CDK4 protein expression at 30 uM measured after 24 hrs by western blot analysis; assay type: functional, tissue-based
Cardiac fibroblast [2] = test: Anti-myocardial fibrosis activity against cardiac fibroblasts (unknown origin) assessed as inhibition of cell proliferation at 30 uM measured after 24 hrs by EdU incorporation based assay; assay type: functional, tissue-based
Cardiac fibroblast [3] = test: Anti-myocardial fibrosis activity against cardiac fibroblasts (unknown origin) assessed as reduction in collagen synthesis by measuring reduction in type1 collagen protein expression at 30 uM measured after 24 hrs by western blot analysis; assay type: functional
Cardiac fibroblast [4] = test: Anti-myocardial fibrosis activity against cardiac fibroblasts (unknown origin) assessed as reduction in cyclinD1 protein expression at 30 uM measured after 24 hrs by western blot analysis; assay type: functional, tissue-based
Cardiac fibroblast [5] = test: Anti-myocardial fibrosis activity against cardiac fibroblasts (unknown origin) assessed as inhibition of cell viability at 30 uM measured after 24 hrs by MTT assay; assay type: functional, tissue-based
Cardiac fibroblast [6] = test: Anti-myocardial fibrosis activity against cardiac fibroblasts (unknown origin) assessed as reduction in collagen synthesis by measuring reduction in type3 collagen protein expression at 30 uM measured after 24 hrs by western blot analysis; assay type: functional
Cardiac fibroblast [7] = test: Anti-myocardial fibrosis activity against cardiac fibroblasts (unknown origin) assessed as reduction in CDK4 protein expression measured after 24 hrs in presence of ALDH2 inhibitor, daidzin by western blot analysis; assay type: functional, tissue-based
Cardiac fibroblast [8] = test: Anti-myocardial fibrosis activity against cardiac fibroblasts (unknown origin) assessed as reduction in cyclinD1 protein expression measured after 24 hrs by western blot analysis; assay type: functional, tissue-based; details: dose 5-20 µM
Cardiac fibroblast [9] = test: Anti-myocardial fibrosis activity against cardiac fibroblasts (unknown origin) assessed as reduction in collagen synthesis by measuring reduction in type3 collagen protein expression measured after 24 hrs by western blot analysis; assay type: functional; details: dose 5-20 µM
Cardiac fibroblast [10] = test: Anti-myocardial fibrosis activity against cardiac fibroblasts (unknown origin) assessed as reduction in collagen synthesis by measuring reduction in type1 collagen protein expression measured after 24 hrs in presence of ALDH2 inhibitor, daidzin by western blot analysis; assay type: functional, tissue-based
[11] = biological target: T1, Aldehyde dehydrogenase, mitochondrial (Homo sapiens) (UniProt P05091); test: (§1) Agonist activity at human recombinant ALDH2 measured after 1 hr; details: filed as agonist
T1 sequence (whole entry): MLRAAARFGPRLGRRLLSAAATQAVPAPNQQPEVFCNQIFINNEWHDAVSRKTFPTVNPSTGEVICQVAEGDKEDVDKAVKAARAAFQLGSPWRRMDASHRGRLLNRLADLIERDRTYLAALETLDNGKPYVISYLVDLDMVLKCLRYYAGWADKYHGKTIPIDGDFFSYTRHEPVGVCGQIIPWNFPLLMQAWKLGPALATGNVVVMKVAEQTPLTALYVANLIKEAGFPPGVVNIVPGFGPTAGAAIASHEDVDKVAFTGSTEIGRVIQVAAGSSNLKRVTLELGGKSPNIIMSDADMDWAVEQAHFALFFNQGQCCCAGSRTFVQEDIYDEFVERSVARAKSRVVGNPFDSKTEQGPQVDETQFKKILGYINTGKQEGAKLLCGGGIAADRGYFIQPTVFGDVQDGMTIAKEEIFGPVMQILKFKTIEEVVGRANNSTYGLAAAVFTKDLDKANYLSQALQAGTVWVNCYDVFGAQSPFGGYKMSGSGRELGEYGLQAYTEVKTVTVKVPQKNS

[12] = biological target: T2, Aldehyde dehydrogenase, mitochondrial (Homo sapiens, UniProt P05091); test: as §1
T2 sequence (P05091 whole entry): T1 sequence (whole entry)

Cardiac fibroblast [13] = test: Anti-myocardial fibrosis activity against cardiac fibroblasts (unknown origin) assessed as inhibition of cell viability measured after 24 hrs in presence of ALDH2 inhibitor, daidzin by MTT assay; assay type: functional, tissue-based
Cardiac fibroblast [14] = test: Anti-myocardial fibrosis activity against cardiac fibroblasts (unknown origin) assessed as inhibition of cell proliferation measured after 24 hrs by EdU incorporation based assay; assay type: functional, tissue-based; details: dose 5-20 µM
[15] = biological target: T1, Aldehyde dehydrogenase, mitochondrial (Homo sapiens); test: Binding affinity to ALDH2 (unknown origin) by surface plasmon resonance analysis; details: filed as agonist
Cardiac fibroblast [16] = test: Effect on Bcl2 protein expression in cardiac fibroblasts (unknown origin) measured after 24 hrs in presence of ALDH2 inhibitor, daidzin by western blot analysis; assay type: functional, tissue-based
Cardiac fibroblast [17] = test: Anti-myocardial fibrosis activity against cardiac fibroblasts (unknown origin) assessed as inhibition of cell viability measured after 24 hrs by MTT assay; assay type: functional, tissue-based; details: dose 5-20 µM
Cardiac fibroblast [18] = test: Anti-myocardial fibrosis activity against cardiac fibroblasts (unknown origin) assessed as reduction in CDK4 protein expression measured after 24 hrs by western blot analysis; assay type: functional, tissue-based; details: dose 5-20 µM
Cardiac fibroblast [19] = test: Anti-myocardial fibrosis activity against cardiac fibroblasts (unknown origin) assessed as inhibition of cell viability at 20 uM measured for 120 hrs by MTT assay; assay type: functional, tissue-based
Cardiac fibroblast [20] = test: Effect on Bax protein expression in cardiac fibroblasts (unknown origin) at 5 to 20 uM incubated for 24 hrs by western blot analysis; assay type: functional, tissue-based; details: dose 5-20 µM
Cardiac fibroblast [21] = test: Anti-myocardial fibrosis activity against cardiac fibroblasts (unknown origin) assessed as reduction in collagen synthesis by measuring reduction in type1 collagen protein expression measured after 24 hrs by western blot analysis; assay type: functional, tissue-based; details: dose 5-20 µM
Cardiac fibroblast [22] = test: Anti-myocardial fibrosis activity against cardiac fibroblasts (unknown origin) assessed as reduction in collagen synthesis by measuring reduction in type3 collagen protein expression measured after 24 hrs in presence of ALDH2 inhibitor, daidzin by western blot analysis; assay type: functional, tissue-based
Cardiac fibroblast [23] = test: Effect on ALDH2 expression in cardiac fibroblasts (unknown origin) at 5 to 20 uM measured after 24 hrs by western blot analysis; assay type: functional, tissue-based; details: dose 5-20 µM
Cardiac fibroblast [24] = test: Effect on Bax protein expression in cardiac fibroblasts (unknown origin) measured after 24 hrs in presence of ALDH2 inhibitor, daidzin by western blot analysis; assay type: functional, tissue-based
Cardiac fibroblast [25] = test: Anti-myocardial fibrosis activity against cardiac fibroblasts (unknown origin) assessed as reduction in cyclinD1 protein expression measured after 24 hrs in presence of ALDH2 inhibitor, daidzin by western blot analysis; assay type: functional, tissue-based
Cardiac fibroblast [26] = test: Anti-myocardial fibrosis activity against cardiac fibroblasts (unknown origin) assessed as inhibition of cell proliferation measured after 24 hrs in presence of ALDH2 inhibitor, daidzin by EdU incorporation based analysis; assay type: functional, tissue-based
Cardiac fibroblast [27] = test: Effect on Bcl2 protein expression in cardiac fibroblasts (unknown origin) at 5 to 20 uM incubated for 24 hrs by western blot analysis; assay type: functional, tissue-based; details: dose 5-20 µM
[28] = biological target: T1, Aldehyde dehydrogenase, mitochondrial (Homo sapiens); test: Agonist activity at ALDH2 in cardiac fibroblasts (unknown origin) measured after 24 hrs by ELISA; assay type: tissue-based; details: Cardiac fibroblast, filed as agonist, dose 5-20 µM

O=C(NCc1ccc2c(c1)OCO2)c1c(Cl)cccc1Cl
Activity (Cardiac fibroblast [1]): Active
Activity (Cardiac fibroblast [2]): Active
Activity (Cardiac fibroblast [3]): Active
Activity (Cardiac fibroblast [4]): Active
Activity (Cardiac fibroblast [5]): Active
Activity (Cardiac fibroblast [6]): Active

C=CCc1ccc(O)c(-c2cc(CC=C)ccc2O)c1 [MAGNOLOL]
Activity (Cardiac fibroblast [7]): inactive
Activity (Cardiac fibroblast [8]): Dose-Dependent Effect
Activity (Cardiac fibroblast [9]): Dose-Dependent Effect
Activity (Cardiac fibroblast [10]): inactive
Activity [11]: Dose-Dependent Effect
EC50 [12]: 57.9 µM
Activity (Cardiac fibroblast [13]): inactive
Activity (Cardiac fibroblast [14]): Dose-Dependent Effect
Activity [15]: 7.07 10^-6M
Activity (Cardiac fibroblast [16]): inactive
Activity (Cardiac fibroblast [17]): Dose-Dependent Effect
Activity (Cardiac fibroblast [18]): Dose-Dependent Effect
Activity (Cardiac fibroblast [19]): Active
Activity (Cardiac fibroblast [20]): inactive
Activity (Cardiac fibroblast [21]): Dose-Dependent Effect
Activity (Cardiac fibroblast [22]): inactive
Activity (Cardiac fibroblast [23]): inactive
Activity (Cardiac fibroblast [24]): inactive
Activity (Cardiac fibroblast [25]): inactive
Activity (Cardiac fibroblast [26]): inactive
Activity (Cardiac fibroblast [27]): inactive
Activity [28]: Dose-Dependent Effect
